As a reminder, the IC50 is the concentration that inhibits the measured activity by half. As a reminder, the inhibition is the drop in the measured response relative to a control, in per cent. Higher therefore signals a response far below the control. As a reminder, the Ki is the dissociation constant of the complex between target and ligand, obtained from inhibition or displacement.

The text below walks through data of publication PMC11007943 (BMC Chemistry, 2024).

Where “and” joins values, the source holds several entries; their conditions need not be identical. Identical values can stand only once. Entries after “also recorded” stand apart in the source; their conditions may differ. Like-named read-outs stand apart in the source and are kept apart here.

Data set [1] concerns the target T1, BChE (Homo sapiens, UniProt P06276). Conditions: read-out: IC50 against BChE; cited from earlier work.
The conditions of data set [2]: cited from earlier work.
In data set [3] the target is T2, AChE (Homo sapiens, UniProt P22303). Conditions: read-out: IC50 against AChE; cited from earlier work.
Data set [4] deals with T2, AChE. The data set is described as follows: biochemical. To be noted: for inhibition at 50 µM: mean ± S.E. The class given is biochemical.
Data set [5] has as its target T1, BChE. The data set is described as follows: BChE inhibition, modified Ellman's method. The class given is biochemical. The protocol: Cholinesterase inhibitory activities of all derivatives were assessed using the modified Ellman’s method. Briefly, 20 µL AChE 0.18 units/mL, or 20 µL BChE 0.162 units/mL, and 20 µL DTNB (301 μM) were added to 200 μL sodium phosphate buffer (0.1 mol/L, pH = 7.4) in separate wells of a 96-well microplate and gently mixed. […]. The absorbance of each well was measured at 415 nm using a microplate reader. IC50 and inhibition values were calculated with the software curve expert as the mean of three independent experiments and expressed as mean ± SEM [25, 26].

The target in data set [6] is T1, BChE. As to the kind of experiment: Enzyme kinetic study against BChE (Lineweaver–Burk and secondary plots). The class given is biochemical. The text has this:
[…]. As the concentration of inhibitor 4k increased, the Michaelis–Menten constant (Km) increased, and the maximum reaction rate (Vmax) remained unaffected.
The Ki value provides important information about the strength of the interaction between the inhibitor and the enzyme (Fig. 4).
[…]. A Lineweaver–Burk plot was generated to determine the inhibition type and calculate the Michaelis–Menten constant (Km). Secondary plots were constructed to determine the experimental inhibitor constant (Ki).

[7] abbreviates: mean ± S.E, read-out: BChE (IC50).
[8] abbreviates: single graphs behind the mean BChE IC50 of Table 2, read-out: IC50 (individual IC50 graphs, Table S1).

T1 sequence (P06276 29-602): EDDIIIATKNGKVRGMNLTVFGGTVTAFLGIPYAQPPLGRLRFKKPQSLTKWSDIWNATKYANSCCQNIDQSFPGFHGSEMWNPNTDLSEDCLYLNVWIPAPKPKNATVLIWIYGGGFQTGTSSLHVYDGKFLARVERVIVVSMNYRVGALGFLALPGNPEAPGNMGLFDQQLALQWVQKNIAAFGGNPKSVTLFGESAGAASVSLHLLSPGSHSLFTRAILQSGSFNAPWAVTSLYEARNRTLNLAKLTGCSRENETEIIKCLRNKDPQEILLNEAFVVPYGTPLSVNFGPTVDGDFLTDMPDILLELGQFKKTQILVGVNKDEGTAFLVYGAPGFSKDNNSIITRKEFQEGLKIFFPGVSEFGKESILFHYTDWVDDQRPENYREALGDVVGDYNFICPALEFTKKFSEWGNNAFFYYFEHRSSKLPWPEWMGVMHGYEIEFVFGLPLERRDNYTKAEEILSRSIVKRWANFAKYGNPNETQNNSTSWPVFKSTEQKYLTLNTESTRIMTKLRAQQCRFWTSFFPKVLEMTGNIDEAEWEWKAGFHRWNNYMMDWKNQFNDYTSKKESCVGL
T2 sequence (P22303 32-614): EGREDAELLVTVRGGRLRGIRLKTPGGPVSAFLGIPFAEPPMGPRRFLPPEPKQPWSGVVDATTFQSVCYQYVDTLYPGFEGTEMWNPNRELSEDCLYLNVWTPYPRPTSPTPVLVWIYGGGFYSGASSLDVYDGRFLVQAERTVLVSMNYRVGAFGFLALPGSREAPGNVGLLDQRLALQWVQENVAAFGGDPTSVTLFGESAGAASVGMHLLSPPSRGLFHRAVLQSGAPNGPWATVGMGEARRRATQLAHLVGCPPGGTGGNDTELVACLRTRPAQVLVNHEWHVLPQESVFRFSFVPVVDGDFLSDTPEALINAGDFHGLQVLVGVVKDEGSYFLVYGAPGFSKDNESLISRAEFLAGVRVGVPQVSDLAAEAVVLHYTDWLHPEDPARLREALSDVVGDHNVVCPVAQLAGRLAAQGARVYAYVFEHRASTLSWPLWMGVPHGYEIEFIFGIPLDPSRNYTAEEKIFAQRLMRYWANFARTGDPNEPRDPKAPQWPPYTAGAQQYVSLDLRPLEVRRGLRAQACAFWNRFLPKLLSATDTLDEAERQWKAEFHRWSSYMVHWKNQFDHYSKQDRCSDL

On to `CCOc1ccc2c(c1)OC/C(=C\c1ccc(OCCN3CCCCC3)cc1)C2=O` [A], for which, on BChE [1], the IC50 was 854 ± 40 nM.
As to `O=C(O)c1coc2ccc(OCc3ccccc3)cc2c1=O` [B], the “blood–brain barrier (BBB) permeability” value in data set [2] was 5.4 ± 0.3 × 10^−6 cm s^−1. Also, the half-maximal inhibitory concentration (IC50) at BChE [1] is 5240 nM; at AChE [3], 370 nM.
With `N#CC1=C(N)OC2=C(C(=O)CCC2)C1c1ccccc1` (stereo not drawn) [Compound 4a, 2-Amino-5-oxo-4-phenyl-5,6,7,8-tetrahydro-4H-chromene-3-carbonitrile], the inhibition at 50 µM at AChE [4] came to 21 ± 1.31%; against BChE [5] (mean ± S.E), 39.8 ± 1.39%.
As to `N#CC1=C(N)OC2=C(C(=O)CCC2)C1c1ccc([N+](=O)[O-])cc1` (stereo not drawn) [Compound 4b, 2-Amino-4-(4-nitrophenyl)-5-oxo-5,6,7,8-tetrahydro-4H-chromene-3-carbonitrile], the results for the inhibition at 50 µM on AChE [4] and against BChE [5] (mean ± S.E) were 28.9 ± 2.56% and 58.7 ± 1.18%, respectively. The IC50 was 27400 ± 2010 nM at BChE [5] (setting [7]); 28800 nM and 26000 nM on BChE [5] (setting [8]).
For the molecule `N#CC1=C(N)OC2=C(C(=O)CCC2)C1c1ccc(OCc2ccc(Cl)cc2)cc1` (stereo not drawn) [Compound 4c, 2-Amino-4-{4-[(4-chlorobenzyl)oxy]phenyl}-5-oxo-5,6,7,8-tetrahydro-4Hchromene-3-carbonitrile], the results for the inhibition at 50 µM on AChE [4] and against BChE [5] (mean ± S.E) were 23.6 ± 1.2% and 77.7 ± 3.77%, respectively. The IC50 was 890 ± 240 nM on BChE [5] (setting [7]); 1070 nM and 720 nM at BChE [5] (setting [8]).
As to `N#CC1=C(N)OC2=C(C(=O)CCC2)C1c1ccc(OCc2ccc(Br)cc2)cc1` (stereo not drawn) [Compound 4d, 2-Amino-4-{4-[(4-bromobenzyl)oxy]phenyl}-5-oxo-5,6,7,8-tetrahydro-4Hchromene-3-carbonitrile], the inhibition at 50 µM turned out to be 23.4 ± 1% at AChE [4] and 67.8 ± 1.7% on BChE [5] (mean ± S.E). Further, the IC50 at BChE [5] (setting [7]) is 1190 ± 310 nM; on BChE [5] (setting [8]) it was 1410 nM and 970 nM.
`N#CC1=C(N)OC2=C(C(=O)CCC2)C1c1ccc(OCCN2CCOCC2)cc1` (stereo not drawn) [Compound 4e, 2-Amino-4-[4-(2-morpholinoethoxy)phenyl]-5-oxo-5,6,7,8-tetrahydro-4Hchromene-3-carbonitrile]: the inhibition at 50 µM at AChE [4] was 34.4 ± 3.1%; at BChE [5] (mean ± S.E) it was 58.9 ± 0.93%. Further, the IC50 at BChE [5] (setting [7]) is 26300 ± 3340 nM; on BChE [5] (setting [8]), 28700 nM and 24000 nM.
With `N#CC1=C(N)OC2=C(C(=O)CCC2)C1c1cccc(OCc2ccc(Cl)cc2)c1` (stereo not drawn) [Compound 4f, 2-Amino-4-{3-[(4-chlorobenzyl)oxy]phenyl}-5-oxo-5,6,7,8-tetrahydro-4H-chromene-3-carbonitrile], the “inhibitory activity against AChE (in words)” value against AChE [4] is “nearly inactive”. Also, the inhibition at 50 µM is 4.42 ± 0.57% against AChE [4] and 62 ± 7.24% against BChE [5] (mean ± S.E). The half-maximal inhibitory concentration (IC50) was 5700 ± 680 nM at BChE [5] (setting [7]); 6180 nM and 5210 nM on BChE [5] (setting [8]).
Turning to `N#CC1=C(N)OC2=C(C(=O)CCC2)C1c1cccc(OCc2ccc(Br)cc2)c1` (stereo not drawn) [Compound 4g, 2-Amino-4-{3-[(4-bromobenzyl)oxy]phenyl}-5-oxo-5,6,7,8-tetrahydro-4Hchromene-3-carbonitrile], the “inhibitory activity against AChE (in words)” value against AChE [4] was “nearly inactive”. Also, the inhibition at 50 µM against AChE [4] is 15 ± 2.59%; against BChE [5] (mean ± S.E), 57.3 ± 9.75%. In addition, the concentration for half-maximal inhibition (IC50) at BChE [5] (setting [7]) was 13100 ± 2590 nM; at BChE [5] (setting [8]), 11200 nM and 14900 nM.
Turning to `N#CC1=C(N)OC2=C(C(=O)CCC2)C1c1ccccc1OCc1ccc(Cl)cc1` (stereo not drawn) [Compound 4h, 2-Amino-4-{2-[(4-chlorobenzyl)oxy]phenyl}-5-oxo-5,6,7,8-tetrahydro-4H-chromene-3-carbonitrile], the inhibition at 50 µM at AChE [4] was 7.35 ± 0.56%; against BChE [5] (mean ± S.E), 21.3 ± 2.69%.
As to `N#CC1=C(N)OC2=C(C(=O)CCC2)C1c1ccccc1OCc1cccc(Cl)c1` (stereo not drawn) [Compound 4i, 2-Amino-4-{2-[(3-chlorobenzyl)oxy]phenyl}-5-oxo-5,6,7,8-tetrahydro-4H-chromene-3-carbonitrile], the results for the inhibition at 50 µM against AChE [4] and at BChE [5] (mean ± S.E) were 19.4 ± 2.39% and 42.8 ± 1.22%, respectively.
In the case of `COc1ccc(COc2ccccc2C2C(C#N)=C(N)OC3=C2C(=O)CCC3)cc1` (stereo not drawn) [Compound 4j, 2-Amino-4-{2-[(4-methoxybenzyl)oxy]phenyl}-5-oxo-5,6,7,8-tetrahydro-4H-chromene-3-carbonitrile], the inhibition at 50 µM at AChE [4] was determined as 16.3 ± 0.63%; against BChE [5] (mean ± S.E), 38.3 ± 4.36%.
On to `COc1cc(C2C(C#N)=C(N)OC3=C2C(=O)CCC3)ccc1OCc1ccc(F)cc1` (stereo not drawn) [Compound 4k, 2-Amino-4-{4-[(4-fluorobenzyl)oxy]-3-methoxyphenyl}-5-oxo-5,6,7,8-tetrahydro-4H-chromene-3-carbonitrile], for which the inhibition at 50 µM on AChE [4] stood at 41.1 ± 2.33%; against BChE [5] (mean ± S.E), 80.5 ± 5.08%. Further, the type of inhibition entry on BChE [6] (Lineweaver–Burk plot, Km increased, Vmax unaffected) is “competitive-type inhibition; also recorded: competitive inhibitor”. The Ki on BChE [6] (from secondary plot of slopes vs inhibitor concentration, R^2 = 0.9876, read-out: Ki (inhibition constant)) is 550 nM. Moreover, the IC50 at BChE [5] (setting [7]) was determined as 650 ± 130 nM.
As to `COc1cc(C2C(C#N)=C(N)OC3=C2C(=O)CCC3)ccc1OCc1cccc(F)c1` (stereo not drawn) [Compound 4l, 2-Amino-4-{4-[(3-fluorobenzyl)oxy]-3-methoxyphenyl}-5-oxo-5,6,7,8-tetrahydro-4H-chromene-3-carbonitrile], the inhibition at 50 µM at AChE [4] is 33.6 ± 3.29%; on BChE [5] (mean ± S.E) it was 76.1 ± 0.88%. For the same molecule, the 50% inhibitory concentration (IC50) at BChE [5] (setting [7]) was 2630 ± 190 nM; on BChE [5] (setting [8]), 2770 nM and 2490 nM.
Take `COc1cc(C2C(C#N)=C(N)OC3=C2C(=O)CCC3)ccc1OCc1cccc(Cl)c1` (stereo not drawn) [Compound 4m, A-amino-4-{4-[(3-chlorobenzyl)oxy]-3-methoxyphenyl}-5-oxo-5,6,7,8-tetrahydro-4H-chromene-3-carbonitrile]: the inhibition at 50 µM worked out at 12.9 ± 1.27% against AChE [4] and 69.7 ± 1.52% on BChE [5] (mean ± S.E). Also, the IC50 on BChE [5] (setting [7]) is 1510 ± 200 nM; on BChE [5] (read-out: IC50 (individual IC50 graphs, Table S1)), 1650 nM and 1360 nM.
With `O=C(NCCCCCCCCCCNc1c2c(nc3ccccc13)CCCC2)c1cc(=O)c2cc(O)ccc2o1` [E], the BBB permeability in data set [2] was 23.1 ± 0.1 × 10^−6 cm s^−1. For the same molecule, the 50% inhibitory concentration (IC50) was 1500 ± 40 nM at BChE [1] and 8000 ± 200 nM at AChE [3].
With `N#CC1=C(N)Oc2c(c(=O)oc3ccccc23)C1c1cc[n+](Cc2ccc(F)cc2)cc1` (stereo not drawn) [F], the concentration for half-maximal inhibition (IC50) on BChE [1] is 1840 ± 120 nM.
As for `N#CC1=C(N)OC2=C(C(=O)CCC2)C1c1ccc(OCCN2CCCCC2)cc1` (stereo not drawn) [G], the IC50 on BChE [1] is 8100 ± 500 nM; on AChE [3], 20400 ± 9300 nM.
